Eight compounds from PMC5513680 (Medical Science Monitor : International Medical Journal of …, 2017) can be followed below.

Format in all cases: biochemical
Test [1] concerns the target Acetylcholinesterase (AChE) (Homo sapiens, UniProt P22303). Kind of test: AChE inhibition assay. The following applies: for Selectivity Index (SI): determined by BuChE/AChE (IC50 ratio).
The target in test [2] is butylcholinesterase (BuChE) (Homo sapiens, UniProt P06276). As to the kind of experiment: BChE inhibition assay.
butylcholinesterase (BuChE), sequence (P06276 29-602): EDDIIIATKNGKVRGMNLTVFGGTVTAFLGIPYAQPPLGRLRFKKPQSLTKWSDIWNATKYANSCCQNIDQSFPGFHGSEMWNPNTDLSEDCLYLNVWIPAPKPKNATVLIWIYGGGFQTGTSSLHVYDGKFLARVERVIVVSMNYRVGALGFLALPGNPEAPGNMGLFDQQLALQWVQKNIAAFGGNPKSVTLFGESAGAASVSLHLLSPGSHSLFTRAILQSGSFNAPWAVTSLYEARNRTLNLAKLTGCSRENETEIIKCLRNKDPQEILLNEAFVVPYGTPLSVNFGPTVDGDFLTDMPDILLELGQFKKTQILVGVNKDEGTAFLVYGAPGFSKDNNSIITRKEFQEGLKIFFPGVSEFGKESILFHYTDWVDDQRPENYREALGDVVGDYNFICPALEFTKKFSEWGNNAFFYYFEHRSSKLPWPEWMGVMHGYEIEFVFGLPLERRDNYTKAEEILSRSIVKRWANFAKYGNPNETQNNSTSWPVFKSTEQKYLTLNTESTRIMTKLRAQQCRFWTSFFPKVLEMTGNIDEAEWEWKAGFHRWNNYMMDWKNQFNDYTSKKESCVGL
For another test, the target named is Aβ (1–42) (Homo sapiens, UniProt P05067). As to the kind of experiment: Self-mediated Aβ.
Aβ (1–42), sequence (P05067 672-713): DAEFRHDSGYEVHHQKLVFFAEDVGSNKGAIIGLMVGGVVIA
A further test addresses β-secretase (Homo sapiens, UniProt P56817). As to the kind of experiment: β-secretase inhibition assay.

Acetylcholinesterase (AChE), sequence (P22303 32-614, species assumed): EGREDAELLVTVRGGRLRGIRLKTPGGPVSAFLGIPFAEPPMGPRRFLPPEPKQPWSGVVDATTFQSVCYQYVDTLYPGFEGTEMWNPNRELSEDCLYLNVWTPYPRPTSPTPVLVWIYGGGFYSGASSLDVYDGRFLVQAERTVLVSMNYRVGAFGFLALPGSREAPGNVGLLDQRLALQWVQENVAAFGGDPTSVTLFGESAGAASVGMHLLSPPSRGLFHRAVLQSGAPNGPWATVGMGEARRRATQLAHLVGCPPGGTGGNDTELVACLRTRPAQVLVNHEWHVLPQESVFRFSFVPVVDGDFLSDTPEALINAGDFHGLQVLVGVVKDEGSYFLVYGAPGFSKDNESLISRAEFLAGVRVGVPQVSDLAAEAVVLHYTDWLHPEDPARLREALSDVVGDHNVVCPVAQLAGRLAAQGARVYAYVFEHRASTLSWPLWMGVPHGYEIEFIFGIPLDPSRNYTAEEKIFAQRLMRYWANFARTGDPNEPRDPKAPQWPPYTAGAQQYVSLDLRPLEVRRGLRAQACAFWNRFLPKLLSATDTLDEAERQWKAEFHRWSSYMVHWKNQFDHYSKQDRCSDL
β-secretase, sequence (P56817 46-501): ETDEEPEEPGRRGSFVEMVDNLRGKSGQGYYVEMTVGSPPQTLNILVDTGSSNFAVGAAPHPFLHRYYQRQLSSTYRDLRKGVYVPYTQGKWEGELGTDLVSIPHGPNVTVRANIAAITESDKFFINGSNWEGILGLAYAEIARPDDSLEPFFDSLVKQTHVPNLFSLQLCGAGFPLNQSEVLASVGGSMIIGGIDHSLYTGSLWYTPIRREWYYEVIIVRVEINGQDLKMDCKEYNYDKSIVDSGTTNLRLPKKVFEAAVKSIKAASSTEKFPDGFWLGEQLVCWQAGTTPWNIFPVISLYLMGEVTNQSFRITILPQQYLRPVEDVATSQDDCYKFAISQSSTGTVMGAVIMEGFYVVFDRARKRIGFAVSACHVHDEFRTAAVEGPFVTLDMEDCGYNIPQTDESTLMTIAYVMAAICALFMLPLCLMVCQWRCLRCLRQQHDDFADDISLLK

On to `O=C(/C=C/c1ccccc1)c1ccc(OCCNC2CCN(Cc3ccccc3)CC2)cc1` [8a, (E)-1-(4-(2-((1-benzylpiperidin-4-yl)amino)ethoxy)phenyl)-3-phenylprop-2-en-1-one], for which the IC50 (in general, the midpoint of a concentration-inhibition curve) in test [1] came out at 32.34 ± 0.26 µM; in test [2] it was 21.72 ± 0.11 µM. For the same compound, the “Selectivity Index (SI)” value in test [1] turned out to be 0.67.
For `O=C(/C=C/c1ccccc1)c1ccc(OCCNC2CCN(Cc3ccc(Cl)cc3)CC2)cc1` [8b, (E)-1-(4-(2-((1-(4-chlorobenzyl)piperidin-4-yl)amino)ethoxy)phenyl)-3-phenylprop-2-en-1-one] the same measures were 10 ± 0.54 µM, 19.45 ± 0.15 µM and 1.93.
For `O=C(/C=C/c1ccccc1)c1ccc(OCCNC2CCN(Cc3ccc(Br)cc3)CC2)cc1` [8c, (E)-1-(4-(2-((1-(4-bromobenzyl)piperidin-4-yl)amino)ethoxy)phenyl)-3-phenylprop-2-en-1-one] the same measures were 18.1 ± 0.33 µM, 28.4 ± 0.42 µM and 1.56.
In the same order, the values of `O=C(/C=C/c1ccccc1)c1ccc(OCCNC2CCN(Cc3ccc(F)cc3)CC2)cc1` [8d, (E)-1-(4-(2-((1-(4-fluorobenzyl)piperidin-4-yl)amino)ethoxy)phenyl)-3-phenylprop-2-en-1-one] are 14.2 ± 0.15 µM, 26.5 ± 0.28 µM and 1.86.
As for `O=C(/C=C/c1ccccc1)c1ccc(OCCNC2CCN(Cc3ccc([N+](=O)[O-])cc3)CC2)cc1` [8e, (E)-1-(4-(2-((1-(4-nitrobenzyl)piperidin-4-yl)amino)ethoxy)phenyl)-3-phenylprop-2-en-1-one], in test [1], half-maximal inhibition (IC50) required 28.62 ± 0.22 µM and the “Selectivity Index (SI)” value came out at 0.87. In addition, the IC50 in test [2] was determined as 25 ± 0.31 µM.
Turning to `COc1ccc(CN2CCC(NCCOc3ccc(C(=O)/C=C/c4ccccc4)cc3)CC2)cc1` [8f, (E)-1-(4-(2-((1-(4-methoxybenzyl)piperidin-4-yl)amino)ethoxy)phenyl)-3-phenylprop-2-en-1-one], the IC50 in test [1] came to 4.22 ± 0.34 µM; in test [2], 9.45 ± 0.25 µM. Besides, the “Selectivity Index (SI)” value in test [1] stood at 2.23. In addition, the “fold less active against AChE than the parent compound (8g)” value in test [1] (relative to 8g) is “approximately 3 fold”. In addition, the “fold less active against BuChE than the parent compound (8g)” value in test [2] (relative to 8g) is “approximately 3 fold”.
Regarding `Cc1ccc(CN2CCC(NCCOc3ccc(C(=O)/C=C/c4ccccc4)cc3)CC2)cc1` [8g, (E)-1-(4-(2-((1-(4-methylbenzyl)piperidin-4-yl)amino)ethoxy)phenyl)-3-phenylprop-2-en-1-one], the IC50 in test [1] amounted to 1.12 ± 0.13 µM; in test [2], 3.23 ± 0.12 µM; against Aβ (1–42), 18.2 ± 2.3 µM; at β-secretase, 23.1 ± 1.8 µM. Besides, the “Selectivity Index (SI)” value in test [1] stood at 2.88.
As to `O=C(/C=C/c1ccccc1)c1ccc(OCCNC2CCN(Cc3ccc(Cl)c(Cl)c3)CC2)cc1` [8h, (E)-1-(4-(2-((1-(3,4-dichlorobenzyl)piperidin-4-yl)amino)ethoxy)phenyl)-3-phenylprop-2-en-1-one], the “Selectivity Index (SI)” value in test [1] stood at 1.06.
